Test results taken from patent US5232917A, “Methods, compositions, and compounds for allosteric modulation of the GABA receptor by members of the androstane and pregnane series” (priority 1991, dated 1993).
pIC50: −log10 of the molar value. Like-named read-outs stand apart in the source and are kept apart here.

What was measured:
[1] = target: T1, estrogen receptor (Bos taurus, UniProt P49884); assay: Inhibition of 3H-estradiol binding to bovine uteral estrogen receptors; settings: read-out: % of inhibition of 3H-estradiol binding, B, competitor 10^-6 M; 0.25 nM 3H-estradiol
T1 construct: from tissue; host or cells: bovine uterus cytosol
T1 sequence (P49884 1-596): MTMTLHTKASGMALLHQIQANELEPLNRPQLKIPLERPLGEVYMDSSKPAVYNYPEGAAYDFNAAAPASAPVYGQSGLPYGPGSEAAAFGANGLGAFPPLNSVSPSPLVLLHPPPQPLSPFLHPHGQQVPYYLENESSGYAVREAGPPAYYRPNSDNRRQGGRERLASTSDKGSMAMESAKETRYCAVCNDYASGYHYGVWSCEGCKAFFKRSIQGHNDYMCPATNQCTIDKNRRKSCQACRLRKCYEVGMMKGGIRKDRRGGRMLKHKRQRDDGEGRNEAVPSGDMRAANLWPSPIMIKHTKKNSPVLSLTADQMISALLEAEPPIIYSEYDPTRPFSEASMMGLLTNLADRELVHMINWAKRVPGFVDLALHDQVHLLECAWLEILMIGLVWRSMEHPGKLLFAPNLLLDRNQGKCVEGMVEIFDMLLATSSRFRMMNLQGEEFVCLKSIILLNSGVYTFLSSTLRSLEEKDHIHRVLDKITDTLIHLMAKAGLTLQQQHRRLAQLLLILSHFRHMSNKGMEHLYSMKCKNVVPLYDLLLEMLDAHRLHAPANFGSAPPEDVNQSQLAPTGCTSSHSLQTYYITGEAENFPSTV
Experimental: The hormonal activity of drugs described herein was further studied through testing their potential estrogenic, progestinic, mineralocorticoid and glucocorticoid activities. These activities were analyzed by monitoring the ability of the drugs to inhibit binding of the steroid hormones to their respective hormone receptors.

[2] = target: GABA receptor-chloride ionophore complex (GR complex); assay: [35S]TBPS binding modulation assay
[3] = tested on: maximal electroshock seizure; settings: 1982, cited from earlier work
[4] = tested on: metrazol-induced convulsions; design: key: NP: no protection; settings: 1982, cited from earlier work
[5] = tested on: (+)bicuculline-induced seizures; design: key: NP: no protection; settings: 1982, cited from earlier work
[6] = tested on: picrotoxin-induced convulsions; design: key: NP: no protection; settings: 1982, cited from earlier work
[7] = tested on: strychnine-induced convulsions; settings: 1982, cited from earlier work
[8] = 1982, cited from earlier work

Row | Compound | ED50 MES (maximal electroshock) ([3]; Swinyard & Woodhead) [mg/kg] | ED50 MTZ (metrazol) ([4]; Swinyard & Woodhead) | ED50 BIC (bicuculline) ([5]; Swinyard & Woodhead) | ED50 PICRO (picrotoxin) ([6]; Swinyard & Woodhead) | ED50 STR (strychnine) ([7]; Swinyard & Woodhead) [mg/kg] | LD50 ([8]; Swinyard & Woodhead) [mg/kg] | other results
1 | CC(C)(O)[C@H]1CC[C@H]2[C@@H]3CC[C@H]4C[C@H](O)CC[C@]4(C)[C@H]3CC[C@]12C [3α,20-dihydroxy-20-methyl-5α-pregnane] | – | – | – | – | – | – | inhibition at 1 µM [1]: 0%; pIC50 ([2]; read-out: IC50, inhibition of [35S]-TBPS binding, +5 μM GABA, in the presence of 5 μM GABA): 7.19; Max. Inhib., maximal % of specifically bound [35S]-TBPS displaced ([2]; saturating concentrations of test compound): 45%
2 | CCC1(c2ccccc2)C(=O)NC(=O)NC1=O [Phenobarbital] | 22 | 13 mg/kg | 38 mg/kg | 28 mg/kg | 95 | 265 | –
3 | O=C1NC(=O)C(c2ccccc2)(c2ccccc2)N1 [Phenytoin] | – | NP | NP | NP | – | 230 | Maximum protection, STR (strychnine) ([7]; at 55-100 mg/kg, Swinyard & Woodhead): 50%
4 | NC(=O)CCC/N=C(\c1ccc(Cl)cc1)c1cc(F)ccc1O [Progabide] | – | – | – | – | – | – | ED50 MES (maximal electroshock) ([3]; Worms et al.): 75 mg/kg; ED50 MTZ (metrazol) ([4]; convulsant i.v., Worms et al.): 30 mg/kg; ED50 BIC (bicuculline) ([5]; convulsant i.v., Worms et al.): 30 mg/kg; ED50 PICRO (picrotoxin) ([6]; convulsant i.v., Worms et al.): 105 mg/kg; ED50 STR (strychnine) ([7]; convulsant i.v., Worms et al.): 75 mg/kg; LD50 ([8]; Worms et al.): 3000 mg/kg
5 | CCCC(CCC)C(=O)O [Valproate] | 272 | 149 mg/kg | 360 mg/kg | 387 mg/kg | 293 | 1105 | –
